According to article PMC6155315, “Enantiomeric Aβ peptides inhibit the fluid shear stress response of PIEZO1” (Scientific Reports, 2018):
“And” between values parts separate entries of the source, which are not always exact repeats. Equal values may be shown once. Positions of bridges follow the written chain, without caps; N, C: chain ends. Residues, ends and D or L forms follow the SMILES beside them.

How the values were obtained:
hPIEZO1 = target: T1, hPIEZO1 (Homo sapiens, UniProt Q92508); test: Fluid shear stress assay: shear-induced [Ca2+]i increase (Fluo-4 AM) in hP1-CL cells; format: cell-based; conditions: for Effect on fluid shear [Ca2+]i response: hP1-CL cells; for Shear response of hP1-CL cells after cytoskeletal disruption: concentration not given
T1 construct: expressed in transfected cells
Description: We first created a cell line that expressed a fluorescently tagged version of human PIEZO1 called hPIEZO1-1591-EGFP[5]. […] The cDNA was integrated into the genome of HEK293T cells using a lentivirus vector.
The microfluidic chambers had glass coverslip bottoms coated with human fibronectin (Invitrogen)[20] and fluid flow guided by PDMS channels. Cells were cultured in the chamber for 3 days, with daily medium changes. On the experimental day, chambers were rinsed with isotonic solution (75 mM NaCl, 5 mM KCl, 2 mM MgCl2, 1 mM CaCl2 and 10 mM HEPES, adjusted to 320 mOsm with mannitol). A stock of Fluo-4 AM was diluted to 5 µM in isotonic saline and incubated with cells for 10–30 min at 37C°. Chambers were then rinsed twice with isotonic solution and incubated for 8 minutes to complete Fluo-4 AM de-esterification. A single fluid shear stress pulse of ~15 dynes/cm^2 for 8–10 ms was applied to the chamber using a high-speed pressure servo (HSPC-1 from ALA). Peptide stocks were kept at 4 °C until used, dissolved to desired concentrations, and immediately added to cells.
Images of the cellular response to shear stress were captured by an EM-CCD camera (C9100 model, Hamamatsu) at a nominal rate of 1 Hz. To quantify the response, the average intensity in the field of view was background subtracted. Image intensity was adjusted for the rate of bleaching. Each condition was repeated in four separate chambers, and the results averaged. The responses were normalized to the control experiments, and the inhibition was calculated as previously described. The data points were fit by a Hill plot with the equation:1 y=Vmax⁎x^n/(k^n+x^n) where Vmax is the maximum response, n is the Hill coefficient, and k is related to the concentration at half-maximal response.

PIEZO1 channels = format: cell-based, human; conditions: 5 µM perfused, 50 mV, 60 mmHg pulses; 3 independent experiments
Description: We examined whether the Aβ could inhibit PIEZO1 currents in the patch. We formed outside/out patches from the hP1 cell line and tested whether 10 µM of Aβ (1-40) or Aβ (1-42) (Peptide Method I) inhibited channel activity, a concentration that blocked the shear response.
Cell-attached and outside-out patches were used as previously described[47]. All experiments were at room temperature. Pressure or suction steps were applied to the membranes using a high speed pressure clamp (ALA)[48]. The bath solution contained (in mM): 150 KCl, 10 HEPES, 1 MgCl2, 1 CaCl2 at pH 7.4 that clamped the resting membrane potential to zero. The pipette solution was 150 mM KCl at pH 7.4.
Shown above are typical results from single patches. Left- a positive pressure pulse of 60 mmHg at 50 mV lasting 500 msec was applied to an O/O patch every 2 seconds. After 12 pulses (24 seconds, black trace is the average of 12 pulses), 10 µM of L Aβ(1-40) was applied by perfusion and activity was monitored for 30 seconds (red trace is the average of 15 pulses). […] Center- The effect of Aβ(1-42) on a different patch (identical conditions described above). 12 pressure pulses (black trace) established a baseline response. […] 6 pressure pulses (50 mV, 60 mmHg) were applied to establish the baseline response (black). […]

hP1-mCherry-CL cells = test: Actin stress, cpst-FRET actin force probe, in PIEZO1-overexpressing cells; format: cell-based, human; conditions: for Effect on actin stress: 37 °C, 15 cells from 3 experiments
Excerpt: Cell movement in the presence of PIEZO1 channels appears to rely on cytoskeletal integrity and plasticity, consistent with the ability of cytoskeletal disrupting agents to prevent PIEZO1 activation (Supplementary Fig. 4A). We examined forces within the cytoskeleton during channel inhibition. By transient transfection, we introduced a genetically encoded optical probe of actin stress (cpst-FRET) into stable hP1-mCherry-CL cells[19] (Fig. 4A), resulting in probe expression into F-actin. […] For each experiments described below, we analyzed and averaged (with SD) 15 cells from 3 different experiments. […] 10 pM of monomerized scrambled Aβ peptide (black squares) also had no effect on actin stress.
Figure 4 D-GsMTx4 and the enantiomeric Aβ(1-40) peptides inhibit Ca^2+ entry, and increase cytoskeleton stress in hP1-mCherry-CL cells. hP1-mCherry-CL cells were transiently transfected with cDNA encoding the actin force probe to monitor peptide-induced changes to the cell’s cytoskeleton. […] Each data point is the average of 15 cells from 3 different experiments (with SD). A baseline response is established in the first 30 minutes (37 °C and 5% CO2). Addition (green bar) of D-GsMTx4 (5 uM, black squares) or monomeric enantiomeric Aβ(1-40) peptides (10 pM; L, red circles; D, blue triangles) elicits immediate increases in actin stress. […] Bath removal of extracellular Ca^2+ elicits the largest effect (40%, blue triangles). Data points are 15 cells from 3 independent experiments with SD. Panel D summarizes Aβ responses at the 60 min time point (paired t-test). […] Before and after intensities were analyzed by paired t-test ([…]). […]
(§1) To measure cytoskeletal stress, hP1-mCherry-CL cells were transiently transfected with cDNA encoding the cpst-actin FRET probe. The FRET ratio of […] was measured by simultaneous imaging using an image splitter. Baseline actin stress was measured at 37 °C in isotonic solution for 30 min before peptide addition (see above).

HEK293T cells = test: Actin stress, actin force probe, in unmodified control cells; format: cell-based
Description: (Panel A) HEK293T cells were monitored for 30 min to establish a baseline.
as §1

hP1-CL cells = test: Cell migration (wound healing) assay with peel-off PDMS barrier; format: cell-based, human; conditions: 5 µM
Description: PIEZO1 channels are involved in neurite extension[16] and other types of cell motility. This led us to test the effects of Aβ peptides on hP1-CL motility in a wound healing assay. Cells were grown to confluence on glass coverslips half-coated with PDMS (Polydimethylsiloxane). The PDMS layer was then peeled off allowing us to accurately measure the collective cell migration rates across the newly exposed glass surface.
Figure 3 Aβ peptides inhibit migration of hP1-CL cells. Cell migration was measured as cell movement on glass cover slips in polystyrene dishes at 37 °C and 5% CO2. A PDMS barrier to cell growth was created on the cover slip. When cells reached confluency, the barrier was peeled off. Images of the resulting, initially sharp confluent cell boundary were captured at 0.003 Hz over 5 hours. […] Bottom left panel summarizes the mean cell migration distances as a function of time. […] Three independent experiments were averaged (SEM).
Half of a glass coverslip was coated with catalyzed PDMS (polydimethylsiloxane) (9:1) and allowed to harden. Cells were cultured on the complete coverslip kept in tissue culture dishes. After achieving confluency, the PDMS was peeled from the glass. The location of the front edge of the confluent cells was monitored for 5 hr at 37 C° with 5% CO2-supplemented DMEM media containing 10% bovine serum. […]

T1 sequence (Q92508 whole entry): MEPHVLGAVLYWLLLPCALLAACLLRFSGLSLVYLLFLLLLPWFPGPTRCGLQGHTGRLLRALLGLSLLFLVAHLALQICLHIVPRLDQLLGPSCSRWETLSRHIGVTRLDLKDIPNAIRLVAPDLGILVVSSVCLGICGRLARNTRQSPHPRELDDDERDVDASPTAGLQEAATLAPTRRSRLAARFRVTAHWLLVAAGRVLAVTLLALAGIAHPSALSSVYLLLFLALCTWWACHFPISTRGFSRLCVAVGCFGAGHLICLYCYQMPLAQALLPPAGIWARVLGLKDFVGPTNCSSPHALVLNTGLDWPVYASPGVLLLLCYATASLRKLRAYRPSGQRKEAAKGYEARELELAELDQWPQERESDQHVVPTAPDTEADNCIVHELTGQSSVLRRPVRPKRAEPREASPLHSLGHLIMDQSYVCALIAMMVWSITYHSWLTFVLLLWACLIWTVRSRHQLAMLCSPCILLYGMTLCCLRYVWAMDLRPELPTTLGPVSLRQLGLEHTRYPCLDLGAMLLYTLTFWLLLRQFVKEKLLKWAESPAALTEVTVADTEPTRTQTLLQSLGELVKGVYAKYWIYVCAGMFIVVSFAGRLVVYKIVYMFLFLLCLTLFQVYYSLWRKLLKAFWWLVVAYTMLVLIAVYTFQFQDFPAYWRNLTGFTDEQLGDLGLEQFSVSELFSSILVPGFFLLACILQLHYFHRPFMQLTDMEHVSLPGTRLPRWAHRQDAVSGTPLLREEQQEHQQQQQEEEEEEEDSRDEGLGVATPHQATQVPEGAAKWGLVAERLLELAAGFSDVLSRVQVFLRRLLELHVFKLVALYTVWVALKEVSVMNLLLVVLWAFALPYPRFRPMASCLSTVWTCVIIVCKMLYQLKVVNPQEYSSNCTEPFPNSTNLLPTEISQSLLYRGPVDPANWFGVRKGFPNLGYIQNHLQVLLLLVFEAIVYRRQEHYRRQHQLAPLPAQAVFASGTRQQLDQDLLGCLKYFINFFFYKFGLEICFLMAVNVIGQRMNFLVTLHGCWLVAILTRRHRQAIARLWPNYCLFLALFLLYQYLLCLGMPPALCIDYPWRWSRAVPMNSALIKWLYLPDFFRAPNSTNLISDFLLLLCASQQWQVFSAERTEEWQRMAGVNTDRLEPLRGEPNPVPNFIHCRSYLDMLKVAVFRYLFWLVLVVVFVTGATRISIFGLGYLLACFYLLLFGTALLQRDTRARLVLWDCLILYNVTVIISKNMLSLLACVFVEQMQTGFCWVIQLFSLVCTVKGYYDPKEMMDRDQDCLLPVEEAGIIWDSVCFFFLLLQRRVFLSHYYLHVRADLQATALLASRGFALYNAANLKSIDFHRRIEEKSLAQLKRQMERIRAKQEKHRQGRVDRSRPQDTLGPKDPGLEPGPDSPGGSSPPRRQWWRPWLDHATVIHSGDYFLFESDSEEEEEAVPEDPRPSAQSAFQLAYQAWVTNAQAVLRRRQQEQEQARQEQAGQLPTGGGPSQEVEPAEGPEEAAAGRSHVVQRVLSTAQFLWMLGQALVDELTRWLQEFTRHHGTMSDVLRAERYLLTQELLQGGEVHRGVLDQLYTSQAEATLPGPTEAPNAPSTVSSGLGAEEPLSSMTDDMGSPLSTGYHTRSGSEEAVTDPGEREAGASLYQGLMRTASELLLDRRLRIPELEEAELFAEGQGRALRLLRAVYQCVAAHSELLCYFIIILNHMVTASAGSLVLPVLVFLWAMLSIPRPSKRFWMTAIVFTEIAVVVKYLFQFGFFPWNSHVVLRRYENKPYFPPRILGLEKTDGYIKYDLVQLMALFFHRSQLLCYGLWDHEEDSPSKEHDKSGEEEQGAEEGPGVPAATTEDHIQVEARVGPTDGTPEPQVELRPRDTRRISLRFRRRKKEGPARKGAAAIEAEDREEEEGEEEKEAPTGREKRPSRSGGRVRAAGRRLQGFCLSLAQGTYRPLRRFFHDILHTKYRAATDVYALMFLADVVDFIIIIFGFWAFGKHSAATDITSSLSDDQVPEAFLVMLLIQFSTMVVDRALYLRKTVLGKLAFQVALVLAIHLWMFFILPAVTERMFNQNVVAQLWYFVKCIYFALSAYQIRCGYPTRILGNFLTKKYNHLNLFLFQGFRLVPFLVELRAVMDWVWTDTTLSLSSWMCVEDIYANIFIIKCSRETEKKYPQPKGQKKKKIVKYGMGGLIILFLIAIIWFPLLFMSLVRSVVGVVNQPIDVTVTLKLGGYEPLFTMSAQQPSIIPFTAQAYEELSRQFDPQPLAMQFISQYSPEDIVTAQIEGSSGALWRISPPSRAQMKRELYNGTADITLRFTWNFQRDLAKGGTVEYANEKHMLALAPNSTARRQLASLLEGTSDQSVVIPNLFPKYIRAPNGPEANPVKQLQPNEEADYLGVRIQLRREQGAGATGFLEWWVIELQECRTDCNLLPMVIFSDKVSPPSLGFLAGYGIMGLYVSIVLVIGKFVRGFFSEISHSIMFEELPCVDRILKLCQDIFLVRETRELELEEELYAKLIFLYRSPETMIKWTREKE

CC(C)C[C@@H]1NC(=O)[C@@H](NC(=O)CN)CSSC[C@@H]2NC(=O)[C@@H]3CSSC[C@@H](C(=O)N[C@@H](CC(N)=O)C(=O)N[C@@H](Cc4ccccc4)C(=O)N[C@@H](CO)C(=O)N[C@@H](Cc4ccccc4)C(N)=O)NC(=O)[C@H](CC(C)C)NC(=O)[C@H](CCCCN)NC(=O)[C@H](Cc4ccccc4)NC(=O)[C@H](CC(C)C)NC(=O)[C@H](CCCCN)NC(=O)[C@H](CO)NC(=O)[C@H](CSSC[C@H](NC(=O)[C@H](CCCCN)NC(=O)[C@H](Cc4c[nH]c5ccccc45)NC(=O)[C@H](Cc4c[nH]c5ccccc45)NC(=O)[C@H](Cc4ccccc4)NC(=O)[C@H](CCC(=O)O)NC1=O)C(=O)N[C@@H](CC(N)=O)C(=O)N1CCC[C@H]1C(=O)N[C@@H](CC(N)=O)C(=O)N[C@@H](CC(=O)O)C(=O)N[C@@H](CC(=O)O)C(=O)N[C@@H](CCCCN)C(=O)N3)NC(=O)[C@H](CCCCN)NC(=O)[C@H](CC(C)C)NC(=O)[C@H](CCCCN)NC(=O)[C@@H]1CCCN1C(=O)[C@H](CCCNC(=N)N)NC2=O [GsMTx4] (H-GCLEFWWKCNPNDDKCCRPKLKCSKLFKLCNFSF-NH2; disulfide 2-17, 9-23, 16-30; N-terminus and C-terminus assumed)
Effect on fluid shear [Ca2+]i response (hPIEZO1; 5 µM, Supplementary Fig. 3A): inhibited the shear stress response
Reversibility of channel inhibition on washout (hPIEZO1; shear stress assay, Aβ: within 20 min or with shear stress raised to 25 dynes/cm2): readily restored
Hill coefficient (hPIEZO1; titration of shear stress response of hP1-CL cells): 1.9 and ~ 1.9
Inhibition of PIEZO1 outside/out patch current (PIEZO1 channels): 0.67 ± 0.07

COc1cc2c(c(OC)c1OC)-c1ccc(OC)c(=O)cc1[C@@H](NC(C)=O)CC2 [colchicine]
Shear response of hP1-CL cells after cytoskeletal disruption (hPIEZO1; Supplementary Fig. 3A): unresponsive to fluid shear

C=C1[C@@H](C)[C@H]2[C@H](Cc3ccccc3)NC(=O)[C@]23[C@H](OC(C)=O)/C=C/[C@@](C)(O)C(=O)[C@@H](C)C/C=C/[C@H]3[C@@H]1O [cytochalasin D]
Shear response of hP1-CL cells after cytoskeletal disruption (hPIEZO1; Supplementary Fig. 3A): unresponsive to fluid shear

AEGDSHVLKEGAYMEIFDVQGHVFGGKIFRVVDLGSHNVA [scrambled L-Aβ(1-40), scrambled Aβ(1-40) peptide purchased from Anaspec, used as control]
Effect on fluid shear [Ca2+]i response (hPIEZO1; 10 µM peptide, 4 independent experiments): lack of PIEZO1 inhibition
Effect on actin stress (hP1-mCherry-CL cells; 10 pM monomeric peptide added after 30 min baseline): no effect
Effect on actin stress probe FRET in HEK293T cells (HEK293T cells; concentration not given, after 30 min baseline): no change

D-GsMTx4
Effect on fluid shear [Ca2+]i response (hPIEZO1; 5 µM, Supplementary Fig. 3A): complete inhibition
Effect on hP1-CL cell migration (hP1-CL cells): blocked
Slowing of cell migration (hP1-CL cells; hP1-CL cells, 5 hr, 37 °C, 3 independent experiments): over 10 fold
Effect on actin stress (hP1-mCherry-CL cells; 5 µM added after 30 min baseline): increase in actin stress
Effect on F-actin in lamellipodia (hP1-mCherry-CL cells; actin force probe images, Fig. 4E,F, 20 lamellipodia from 4 cells): drop of F-actin tension and its retraction from the lamellipodia
Effect on actin stress in HEK293T cells (HEK293T cells; 5 µM, 15 cells from 3 experiments): no effect

HiLyte Aβ(1-42): L-Aβ(1-42) fluorescently labeled at the N-terminus with HiLyte (555), purchased (Anaspec) and monomerized
Effect on shear stress response of the hPIEZO1 cell line (hPIEZO1; 5 pM and 100 pM monomerized peptide, 4 independent experiments): inhibited
Effect on PIEZO1-mediated Ca2+ response to shear stress (hPIEZO1; 100 pM monomerized peptide, 4 independent experiments): completely inhibited
